Measurements from publication PMC10522932, “A broad inhibitor of acyl-acyl carrier protein synthetases” (Biochemistry and Biophysics Reports, 2023).

Key:
Test in all cases: urea-PAGE gel shift of acyl-ACP, densitometry
Assay type in all cases: biochemical
VhAasS [1] = target: T1, VhAasS (Vibrio harveyi, UniProt Q00IB3); details: read-out: % inhibition at 1 mM
T1 construct: gene aasS; His6-tagged, E. coli BL21[DE3], Ni-NTA purified; soluble enzyme
T1 sequence (Q00IB3 1-533): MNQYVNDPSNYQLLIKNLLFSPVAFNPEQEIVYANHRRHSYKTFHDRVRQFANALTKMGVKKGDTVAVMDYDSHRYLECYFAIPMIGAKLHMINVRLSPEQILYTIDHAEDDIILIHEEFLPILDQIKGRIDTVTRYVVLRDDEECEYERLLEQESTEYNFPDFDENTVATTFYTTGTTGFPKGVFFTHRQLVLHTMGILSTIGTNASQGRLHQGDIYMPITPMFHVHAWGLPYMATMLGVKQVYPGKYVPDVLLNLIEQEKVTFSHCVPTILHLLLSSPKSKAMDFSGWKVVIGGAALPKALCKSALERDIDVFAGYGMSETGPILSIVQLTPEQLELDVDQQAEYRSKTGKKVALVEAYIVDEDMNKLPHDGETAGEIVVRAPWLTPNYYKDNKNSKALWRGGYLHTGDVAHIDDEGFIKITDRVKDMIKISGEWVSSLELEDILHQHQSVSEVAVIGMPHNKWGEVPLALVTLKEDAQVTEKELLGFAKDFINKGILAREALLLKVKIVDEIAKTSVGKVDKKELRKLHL

AasC [2] = target: T2, AasC (Chlamydia trachomatis, UniProt O84781); details: read-out: % inhibition at 1 mM
T2 construct: gene aas; His6-tagged (pET16b or pET29a, synthetic gene), E. coli BL21[DE3], Ni-NTA purified
T2 sequence (O84781 1-537): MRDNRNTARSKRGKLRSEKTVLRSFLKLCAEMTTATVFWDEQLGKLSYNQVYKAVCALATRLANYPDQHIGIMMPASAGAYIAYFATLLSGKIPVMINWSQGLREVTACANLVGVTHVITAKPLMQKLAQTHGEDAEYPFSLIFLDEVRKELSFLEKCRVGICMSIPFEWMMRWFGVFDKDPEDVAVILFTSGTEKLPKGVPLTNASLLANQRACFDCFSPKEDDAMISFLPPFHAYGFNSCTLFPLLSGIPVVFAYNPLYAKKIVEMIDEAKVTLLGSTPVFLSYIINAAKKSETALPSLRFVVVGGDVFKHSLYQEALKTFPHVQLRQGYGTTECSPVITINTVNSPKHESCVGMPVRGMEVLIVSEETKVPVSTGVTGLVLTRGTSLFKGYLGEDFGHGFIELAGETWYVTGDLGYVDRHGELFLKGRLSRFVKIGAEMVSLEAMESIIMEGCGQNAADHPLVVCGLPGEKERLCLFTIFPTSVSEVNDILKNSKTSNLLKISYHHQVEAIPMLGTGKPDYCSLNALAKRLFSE

VhAasS [3] = target: T1, VhAasS; details: holo-EcACP 30 uM, decanoic acid 1 mM, ATP 10 mM, MgCl2 12.5 mM, TCEP 2.5 mM, enzyme 2 uM, pH 7.5, 37 C, 24 h
AasC [4] = target: T2, AasC; details: holo-EcACP 30 uM, decanoic acid 1 mM, ATP 10 mM, MgCl2 12.5 mM, TCEP 2.5 mM, enzyme 50 uM, pH 7.5, 37 C, 24 h

Row | Compound | inhibition at 1000 µM (VhAasS [1]) | inhibition at 1000 µM (AasC [2]) | urea-PAGE gel shift of acyl-ACP, densitometry (VhAasS [3]) | urea-PAGE gel shift of acyl-ACP, densitometry (AasC [4])
1 | CCCCCCCCCC(=O)NS(=O)(=O)OC[C@H]1O[C@@H](n2cnc3c(N)ncnc32)[C@H](O)[C@@H]1O [C10-AMS] | 100% | 100% | – | –
2 | CCCCCCCCCC(=O)O [decanoic acid] | – | – | All AasS enzymes tested were able to load C10 onto EcACP | All AasS enzymes tested were able to load C10 onto EcACP
